Entries after “also recorded” stand apart in the source; their conditions may differ. Positions of bridges follow the written chain, without caps; N, C: chain ends. Non-standard residues stand in square brackets, D forms with d. Residues, ends and D or L forms follow the SMILES beside them. No end group written: not given here. *: point of attachment. 5FAM = O=C1OC2(c3ccc(O)cc3Oc3cc(O)ccc32)c2ccc(C(=O)*)cc21; DABCYL = 4-(dimethylaminoazo)benzene-4-carboxy; Sta = CC(C)C[C@H](N)[C@@H](O)CC(=O)O; Isovaleryl = CC(C)CC(=O)*
What was measured:
Format in all cases: biochemical, A. fumigatus
native Asp f2 [1] = molecular target: T1, native Asp f2 (Aspergillus fumigatus, UniProt P79017); conditions: for effect of protease inhibitors on proteolytic activity of native Asp f2: 50 μM inhibitor, FluHSA2 substrate
T1 construct: beads were incubated with native or recombinant Asp f2; endogenous in cells; host or cells: Aspergillus fumigatus (preparation of the native protein not described for this assay)
T1 sequence (P79017 32-310): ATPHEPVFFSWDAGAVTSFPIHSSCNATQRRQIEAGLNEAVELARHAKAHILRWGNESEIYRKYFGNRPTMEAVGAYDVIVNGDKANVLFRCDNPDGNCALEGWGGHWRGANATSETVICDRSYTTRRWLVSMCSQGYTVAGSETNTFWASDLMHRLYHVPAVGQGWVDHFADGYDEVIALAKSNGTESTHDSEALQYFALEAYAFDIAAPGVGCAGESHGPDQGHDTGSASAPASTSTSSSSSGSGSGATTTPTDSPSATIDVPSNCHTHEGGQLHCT
Protocol: (§1) A novel bead-based assay was developed for detecting Asp f2 proteolytic activity. […] Cyanogen bromide (CNBr)-activated sepharose beads were swelled in ice-cold HCl (1 mM). Beads (1.0 g) were incubated with 3.0 mg of 5D7A1 in Coupling Buffer (NaHCO3, 0.1 M and NaCl, 0.5 M, pH 8.3-8.5) and rotated for two hours at 22° C. or for 16 hours at 4° C. Beads were blocked with 0.1 M ethanolamine, pH 8.0, then washed with buffers of alternating pH (first with Coupling Buffer, pH 8.5, then with a low pH buffer (sodium acetate, 0.1 M, NaCl, 0.5 M, pH 4.0)). These dual washes were repeated four times. Lastly, beads were resuspended in ammonium bicarbonate (100 mM), lyophilized and stored at 4° C.
(§2) FluHSA2 comprises the peptide of SEQ ID NO:5 conjugated to 5-Fam at the alpha-amino group of the threonine at the N-terminus of the peptide and to DABCYL at the epsilon amino group of the lysine side chain at the C-terminus of the peptide. Upon excitation, the DABCYL suppresses the fluorescence emission of the 5-Fam labeled peptides when the peptides are not cleaved and the fluorescent label and DABCYL remain close together. However, when the peptide is cleaved by Asp f2, the fluorescent label and DABCYL are separated and the fluorescent label emits light energy upon excitation. For each replicate (including negative controls), 100 μL of the antibody coupled bead suspension was transferred into 0.5 mL reaction buffer (FluHSA2 (FIG. 4-5; SEQ ID NO: 5), […] sodium phosphate, 25 mM, NaCl, 100 mM, pH 7.2. Tubes were incubated in the dark for two hours at 37° C. or for 16 hours at 22° C. on a rotary shaker at 250 rpm. Fluorescence was measured at Excitation (Ex) 485 nm/Emission (Em) 535 nm in a black 96-well micro titer plate.
(§3) Diethylpyrocarbonate (DEPC) derivatization of histidines results in the chemical modification of histidines in proteins and is used to study the importance of histidyl residues in enzymes. Using the materials and methods described in Example 1, anti-Asp f2 (5D7A1)-bound beads were incubated with native or recombinant Asp f2 in the presence or absence of DEPC (30 μM) and incubated for one hour at 22° C. prior to reaction with FluHSA2. Samples were then incubated with 10 μM of FluHSA2 for 16 hours at 22° C. and fluorescence was measured as described above. Cleavage of FluHSA2 was detected in the presence or absence of DEPC to test the proteolytic activity of native and recombinant Asp f2.
Anti-Asp f2 (5D7A1)-bound beads were incubated with native or recombinant Asp f2 in the presence or absence of 0.5 mM zinc chloride or 50 μM of various inhibitors. Samples were incubated with FluHSA2 and fluorescence was measured as described above. […] Various Asp f2 histidine residues, including those located in the ^186HRLYH motif, were mutated to alanine (FIG. 12; H186A and H190A are located in the HRLYH motif), and mutant or wild-type Asp f2 was incubated with anti-Asp f2 (5D7A1)-bound beads as described above, followed by incubation with FluHSA2.

recombinant Asp f2 = molecular target: T2, recombinant Asp f2 (Aspergillus fumigatus, UniProt P79017); conditions: for effect of protease inhibitors on proteolytic activity of recombinant Asp f2: 50 μM inhibitor, FluHSA2 substrate
T2 construct: region fused to Asp f2 residues 32-310 (codon optimized for expression in E. coli); Trx-SMT3 N-terminal linker (thioredoxin, His6 tags, SMT3) (N, cleaved yes); made in house; host or cells: Escherichia coli
T2 sequence (P79017 32-310): as above
Protocol: as §1, §2
The fusion protein comprised an N-terminal linker (Trx-SMT3 N-terminal linker) region fused to Asp f2 residues 32-310 (codon optimized for expression in E. coli; FIG. 14) via a Ubiquitin-like-specific protease 1 (ULP1) cleavage site located between SMT3 and Asp f2. The Trx-SMT3 N-terminal linker contained the following from N- to C-terminus: thioredoxin (Trx)-glycine-serine-linker-His6-tag-linkers-another His6-tag-SMT3. Trx was added to improve solubility of the construct and a yeast SUMO (Smt3) was added to help enhance expression and promote solubility of Asp f2. Following purification using a His6-tag specific nickel-NTA column, Asp f2 was activated by cleaving the Trx-SMT3 N-terminal linker off using UPL1.
as §3
Anti-Asp f2 (5D7A1)-bound beads were incubated with native or recombinant Asp f2 in the presence or absence of 0.5 mM zinc chloride or 50 μM of various inhibitors. Samples were incubated with FluHSA2 and fluorescence was measured as described above.

native Asp f2 [2] = molecular target: T1, native Asp f2; assay: Cleavage of fluorogenic substrates by bead-bound native Asp f2
Protocol: Cleavage specificity of the novel FluHSA peptide was tested using Asp f2 and another Aspergillus protein, Asp f3. CNBr-activated sepharose beads were prepared as described in Example 1 and incubated with either the anti-Asp f2 monoclonal antibody 5D7A1 or an anti-Asp f3 rabbit polyclonal antibody. Anti-Asp f2-immobilized beads were incubated with native Asp f2 and anti-Asp f3-immobilized beads were incubated with native Asp f3. Samples were incubated with FluHSA2 (10 μM) for 16 hours at 22° C. Fluorescence was measured at Ex 485 nm/Em 535 nm in a black 96-well micro titer plate as described above.
The cleavage products of FluHSA2 after reaction with native Asp f2 were investigated by mass spectrometric analysis (MALDI spectra) (FIG. 5). Cleavage by Asp f2 occurred in the C-terminal linear tail section of the peptide resulting in at least 5 cleavage products (FIG. 5).
Peptides other than FluHSA2 were tested for cleavage by Asp f2.

[3] = DEPC 30 μM, one hour at 22° C. before FluHSA2 10 μM, 16 hours at 22° C.

Question: Which results are given for c1cnc2c(c1)ccc1cccnc12 [1-10-phenanthroline]?
Answer: effect of protease inhibitors on proteolytic activity of native Asp f2 (native Asp f2 [1]): suppressed; effect of protease inhibitors on proteolytic activity of recombinant Asp f2 (recombinant Asp f2): suppressed

Question: For CCOC(=O)OC(=O)OCC [DEPC, Diethylpyrocarbonate], which “proteolytic activity of native Asp f2 (cleavage of FluHSA2) in the presence of DEPC” value (native Asp f2 [1]; [3]) is on record?
Answer: inhibited; also recorded: inactive in the presence of DEPC

Question: And the “proteolytic activity of recombinant Asp f2 (cleavage of FluHSA2) in the presence of DEPC” value (recombinant Asp f2; [3])?
Answer: inhibited; also recorded: inactive in the presence of DEPC

Question: How did the “effect of protease inhibitors on proteolytic activity of native Asp f2” value (“effect of protease inhibitors … of native Asp f2” for short) (native Asp f2 [1]) turn out when O=C(O)CN(CCN(CC(=O)O)CC(=O)O)CC(=O)O [EDTA, ethylenediaminetetraacetic acid] was run?
Answer: suppressed

Question: And the “effect of protease inhibitors on proteolytic activity of recombinant Asp f2” value (recombinant Asp f2)?
Answer: suppressed

Question: What does the source list for NC(=O)CI [IAA, iodoacetamide]?
Answer: effect of protease inhibitors on proteolytic activity of native Asp f2 (native Asp f2 [1]): did not inhibit; effect of protease inhibitors on proteolytic activity of recombinant Asp f2 (recombinant Asp f2): did not inhibit

Question: Which results are given for O=S(=O)(F)Cc1ccccc1 [PMSF, phenylmethanesulfonylfluoride]?
Answer: effect of protease inhibitors on proteolytic activity of native Asp f2 (native Asp f2 [1]): did not inhibit; effect of protease inhibitors on proteolytic activity of recombinant Asp f2 (recombinant Asp f2): did not inhibit

Question: With c1ccc(CN(CCN(Cc2ccccn2)Cc2ccccn2)Cc2ccccn2)nc1 [TPEN, N,N,N′,N′-tetrakis (2-pyridylmethyl) ethylenediamine] as the compound, how does the “effect of protease inhibitors … of native Asp f2” value (native Asp f2 [1]) read?
Answer: suppressed

Question: What about the “effect of protease inhibitors on proteolytic activity of recombinant Asp f2” value (recombinant Asp f2) of the same compound?
Answer: suppressed

Question: Which “effect of protease inhibitors … of native Asp f2” value (native Asp f2 [1]) does the source give for CC(C)CC(=O)N[C@H](C(=O)N[C@H](C(=O)N[C@@H](CC(C)C)[C@@H](O)CC(=O)N[C@@H](C)C(=O)N[C@@H](CC(C)C)[C@@H](O)CC(=O)O)C(C)C)C(C)C [pepstatin A] (Isovaleryl-VV[Sta]A[Sta]-OH) here?
Answer: did not inhibit

Question: What about the “effect of protease inhibitors on proteolytic activity of recombinant Asp f2” value (recombinant Asp f2) of the same compound?
Answer: did not inhibit

Question: What does the source list for “[5-Fam]-TKCATESAVNRRPCFSALK-[DABCYL] (5FAM-TKCATESAVNRRPCFSALK(DABCYL); disulfide 3-14 (inferred)) [FluHSA2]”?
Answer: number of cleavage products after reaction with native Asp f2 (MALDI) (native Asp f2 [2]): at least 5; specificity of cleavage by Asp f2 compared with Asp f3 (native Asp f2 [2]; FluHSA2 10 μM, 16 hours at 22° C.): high specificity for cleavage by Asp f2; number of cleavage sites on reaction with native Asp f2 (MALDI) (native Asp f2 [2]; sites near the C-terminus): four

Question: What does the source list for aprotinin?
Answer: effect of protease inhibitors on proteolytic activity of native Asp f2 (native Asp f2 [1]): did not inhibit; effect of protease inhibitors on proteolytic activity of recombinant Asp f2 (recombinant Asp f2): did not inhibit

Question: For collagen, which “degradation of fluorogenic protein substrate by native Asp f2” value (native Asp f2 [2]; 15 μg/mL, Asp f2 enriched on 5D7A1 beads) is on record?
Answer: capable of degrading

Question: Which results are given for soybean trypsin inhibitor [SBTI]?
Answer: effect of protease inhibitors on proteolytic activity of native Asp f2 (native Asp f2 [1]): did not inhibit; effect of protease inhibitors on proteolytic activity of recombinant Asp f2 (recombinant Asp f2): did not inhibit
